Activity calls are given as the source filed them. The calls are words filed in the database; no cut-off is given here.
Assays:
Mu-type opioid receptor [1] = target: Mu-type opioid receptor (Rattus norvegicus, UniProt P33535); assay: Displacement of [3H]-DAMGO from Wistar rat mu opioid receptor incubated for 1 hr by liquid scintillation counting method
[2] = target: Delta-type opioid receptor (Rattus norvegicus, UniProt P33533); assay: Displacement of [3H]-DPDPE from Wistar rat delta opioid receptor incubated for 3 hrs by liquid scintillation counting method
Delta-type opioid receptor, sequence (P33533 whole entry): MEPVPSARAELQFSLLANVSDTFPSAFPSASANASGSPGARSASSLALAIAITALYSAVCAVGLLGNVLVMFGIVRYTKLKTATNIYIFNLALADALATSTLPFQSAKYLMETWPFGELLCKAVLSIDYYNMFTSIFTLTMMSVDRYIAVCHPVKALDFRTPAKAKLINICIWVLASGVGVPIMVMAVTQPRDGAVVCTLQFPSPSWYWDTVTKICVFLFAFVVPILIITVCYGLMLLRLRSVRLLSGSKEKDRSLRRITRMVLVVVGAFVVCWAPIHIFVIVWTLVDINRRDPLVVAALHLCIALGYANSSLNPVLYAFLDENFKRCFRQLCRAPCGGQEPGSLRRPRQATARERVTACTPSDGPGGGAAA

Mu-type opioid receptor [3] = target: T1, Mu-type opioid receptor (Homo sapiens, UniProt P35372); assay: Agonist activity at mu opioid receptor (unknown origin) expressed in human HEK293 cells assessed as […] in cAMP accumulation using [3H]-cAMP as substrate measured after 30mins by liquid scintillation counting method; assay type: functional, cell-based
T1 sequence (P35372 whole entry): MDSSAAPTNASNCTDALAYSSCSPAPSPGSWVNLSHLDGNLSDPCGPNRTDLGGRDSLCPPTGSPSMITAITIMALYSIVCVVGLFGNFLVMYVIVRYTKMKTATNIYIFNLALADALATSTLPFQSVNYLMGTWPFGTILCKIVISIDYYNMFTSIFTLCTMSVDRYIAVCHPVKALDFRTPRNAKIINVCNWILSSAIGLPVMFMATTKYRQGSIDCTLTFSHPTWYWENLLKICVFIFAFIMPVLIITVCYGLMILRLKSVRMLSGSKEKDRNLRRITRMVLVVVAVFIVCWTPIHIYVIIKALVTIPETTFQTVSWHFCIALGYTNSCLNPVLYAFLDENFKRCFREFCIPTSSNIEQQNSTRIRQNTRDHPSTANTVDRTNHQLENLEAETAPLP

Mu-type opioid receptor [4] = target: T1, Mu-type opioid receptor; assay: Agonist activity at mu opioid receptor (unknown origin) expressed in human HEK293 cells assessed as […] in cAMP accumulation using [3H]-cAMP as substrate measured after 30mins by liquid scintillation counting method relative to control; assay type: functional, cell-based
Mus musculus [5] = assay: Antinociceptive activity in kunming mouse models of formalin-induced hyperalgesia assessed as reduction in time spent on paw shaking inflammatory phase at 4 nmol, icv measured during phase 2 at 15 to 30 mins relative to control; assay type: functional; set-up: scale not given: the % may be the effect or the level left
Mus musculus [6] = assay: Antinociceptive activity in iv dosed kunming mouse models of formalin-induced hyperalgesia assessed as reduction in pain response of paw licking measured up to 60 mins; assay type: functional, organism-based
Mus musculus [7] = assay: Antinociceptive activity in icv administered kunming mouse models of formalin-induced hyperalgesia assessed reduction in time spent on paw biting during inflammatory phase 2 at 15 to 30 mins; assay type: functional; set-up: scale not given: the % may be the effect or the level left
Mus musculus [8] = assay: Antinociceptive activity in kunming mouse models of formalin-induced hyperalgesia assessed as reduction in time spent on paw biting inflammatory phase at 4 nmol, icv measured during phase 1 at 0 to 5 mins relative to control; assay type: functional; set-up: scale not given: the % may be the effect or the level left
Mus musculus [9] = assay: Antinociceptive activity in kunming mouse models of formalin-induced hyperalgesia assessed as reduction in pain response of paw licking inflammatory phase at 0.04 nmol, icv measured during phase 1 at 0 to 5 mins relative to control; assay type: functional; set-up: scale not given: the % may be the effect or the level left
Mus musculus [10] = assay: Antinociceptive activity in kunming mouse models assessed as maximum possible effect at 4 nmol, icv measured from 5 to 60 mins by warm water tail-flick assay relative to control; assay type: functional
Mus musculus [11] = assay: Antinociceptive activity in kunming mouse models assessed as effective dose after iv administration by warm water tail-flick assay; assay type: functional
Mus musculus [12] = assay: Antinociceptive activity in kunming mouse models of formalin-induced hyperalgesia assessed as reduction in pain response of paw licking inflammatory phase at 4 nmol, icv measured during phase 1 at 0 to 5 mins relative to control; assay type: functional; set-up: scale not given: the % may be the effect or the level left
Mus musculus [13] = assay: Antinociceptive activity in kunming mouse models of formalin-induced hyperalgesia assessed as reduction in time spent on paw biting inflammatory phase at 4 nmol, icv measured during phase 2 at 15 to 30 mins relative to control; assay type: functional; set-up: scale not given: the % may be the effect or the level left
Mus musculus [14] = assay: Antinociceptive activity in kunming mouse models assessed as maximum possible effect at 3 mg/kg, iv measured after 5 to 60 mins by warm water tail-flick assay; assay type: functional
Mus musculus [15] = assay: Antinociceptive activity in kunming mouse models assessed as maximum possible effect at 10 mg/kg, iv measured after 5 to 60 mins co-treated with naloxone by warm water tail-flick assay; assay type: functional, organism-based
[16] = Neurotoxicity in kunming mouse models assessed as effect in locomotor activity at 10 mg/kg,iv measured up to 60 mins by rotarod test; assay type: toxicity, organism-based; settings: in vivo, 1 h
Mus musculus [17] = assay: Antinociceptive activity in icv administered kunming mouse models of formalin-induced hyperalgesia assessed reduction in time spent on paw shaking during inflammatory phase 2 at 15 to 30 mins; assay type: functional; set-up: scale not given: the % may be the effect or the level left
Mus musculus [18] = assay: Antinociceptive activity in kunming mouse models of formalin-induced hyperalgesia assessed as reduction in time spent on paw shaking inflammatory phase at 4 nmol, icv measured during phase 1 at 0 to 5 mins relative to control; assay type: functional; set-up: scale not given: the % may be the effect or the level left
[19] = Half life in Kunming mouse brain homogenate at 10^-2 mol/L by RP-HPLC analysis; assay type: ADME, tissue-based
[20] = Toxicity in kunming mouse assessed as reduction in fecal dry weight at 1 to 10 mg/kg, iv after 1 hr; assay type: organism-based; settings: in vivo
Mus musculus [21] = assay: Antinociceptive activity in kunming mouse models of acetic-acid-induced writhing assessed as inhibition of writhing numbers at 3 mg/kg, iv pretreated for 5 mins followed by acetic-acid treatment and measured for 20 mins; assay type: functional, organism-based
[22] = Half life in Kunming mouse serum at 10^-2 mol/L by RP-HPLC analysis; assay type: ADME, cell-free
Mus musculus [23] = assay: Antinociceptive activity in icv administered kunming mouse models of formalin-induced hyperalgesia assessed reduction in pain response of paw licking during inflammatory phase 2 at 15 to 30 mins; assay type: functional, organism-based
Mus musculus [24] = assay: Antinociceptive activity in kunming mouse models of formalin-induced hyperalgesia assessed as reduction in time spent on paw shaking inflammatory phase at 0.04 nmol, icv measured during phase 1 at 0 to 5 mins relative to control; assay type: functional; set-up: scale not given: the % may be the effect or the level left
Mus musculus [25] = assay: Antinociceptive activity in kunming mouse models of formalin-induced hyperalgesia assessed as reduction in time spent on paw biting inflammatory phase at 0.04 nmol, icv measured during phase 1 at 0 to 5 mins relative to control; assay type: functional; set-up: scale not given: the % may be the effect or the level left
Mus musculus [26] = assay: Antinociceptive activity in kunming mouse models assessed as effective dose after icv administration measured from 5 to 60 mins by warm water tail-flick assay; assay type: functional
Mus musculus [27] = assay: Antinociceptive activity in kunming mouse models of formalin-induced hyperalgesia assessed as reduction in pain response of paw licking inflammatory phase at 4 nmol, icv measured during phase 2 at 15 to 30 mins relative to control; assay type: functional; set-up: scale not given: the % may be the effect or the level left
Mus musculus [28] = assay: Antinociceptive activity in kunming mouse models assessed as maximum possible effect at 0.4 nmol, icv measured from 5 to 60 mins by warm water tail-flick assay relative to control; assay type: functional
Mus musculus [29] = assay: Antinociceptive activity in kunming mouse models of acetic-acid-induced writhing assessed as inhibition of writhing numbers at 0.04 nmol, icv pretreated for 5 mins followed by acetic-acid treatment and measured for 20 mins relative to control; assay type: functional; set-up: scale not given: the % may be the effect or the level left
[30] = Toxicity in kunming mouse assessed as reduction in number of fecal pellet at 1 to 10 mg/kg, iv after 1 hr; assay type: organism-based; settings: in vivo

Mu-type opioid receptor (Rattus norvegicus, UniProt P33535), sequence (P33535 whole entry): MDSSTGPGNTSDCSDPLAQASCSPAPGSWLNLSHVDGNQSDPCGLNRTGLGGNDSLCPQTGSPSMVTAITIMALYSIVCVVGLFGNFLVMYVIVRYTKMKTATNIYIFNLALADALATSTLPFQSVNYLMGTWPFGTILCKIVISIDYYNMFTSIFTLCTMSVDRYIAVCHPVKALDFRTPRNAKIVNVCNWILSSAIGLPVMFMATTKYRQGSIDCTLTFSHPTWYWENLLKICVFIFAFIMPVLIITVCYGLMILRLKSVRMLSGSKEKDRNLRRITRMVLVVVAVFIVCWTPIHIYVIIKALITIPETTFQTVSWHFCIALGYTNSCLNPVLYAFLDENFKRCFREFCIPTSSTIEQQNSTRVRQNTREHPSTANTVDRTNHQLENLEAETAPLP

C=C(C(N)=O)[C@@H](NC(=O)[C@H](Cc1c[nH]c2ccccc12)NC(=O)[C@@H](CCCN)NC(=O)[C@@H](N)Cc1ccc(O)cc1)c1ccco1
Ki (Mu-type opioid receptor [1]): 437 nM
Ki [2]: 0.32 µM
EC50 (Mu-type opioid receptor [3]): 89.3 nM
Emax (Mu-type opioid receptor [4]): 65.6%

C=C(C(N)=O)[C@@H](NC(=O)[C@H](Cc1c[nH]c2ccccc12)NC(=O)[C@@H](CCN)NC(=O)[C@@H](N)Cc1ccc(O)cc1)c1ccco1
Ki (Mu-type opioid receptor [1]): 32.4 nM
Ki [2]: > 10 µM
EC50 (Mu-type opioid receptor [3]): 161 nM
Emax (Mu-type opioid receptor [4]): 75.5%

C=C(C(N)=O)[C@@H](NC(=O)[C@H](Cc1c[nH]c2ccccc12)NC(=O)[C@@H](CCC)NC(=O)[C@@H](N)Cc1ccc(O)cc1)c1ccco1
Ki (Mu-type opioid receptor [1]): 34.4 nM
Ki [2]: 2.66 µM
EC50 (Mu-type opioid receptor [3]): 337 nM
Emax (Mu-type opioid receptor [4]): 67.6%

C=C(C(N)=O)[C@@H](NC(=O)[C@H](Cc1c[nH]c2ccccc12)NC(=O)[C@@H](CNC(C)=O)NC(=O)[C@@H](N)Cc1ccc(O)cc1)c1ccco1
Ki (Mu-type opioid receptor [1]): 4.54 nM
Ki [2]: > 10 µM
EC50 (Mu-type opioid receptor [3]): 272 nM
Emax (Mu-type opioid receptor [4]): 73.2%

C=C(C(N)=O)[C@@H](NC(=O)[C@H](Cc1ccccc1)NC(=O)[C@@H](CCCNC(N)=O)NC(=O)[C@@H](N)Cc1ccc(O)cc1)c1ccco1
Ki (Mu-type opioid receptor [1]): 8.72 nM
Activity (Mus musculus [5]): 100%
Activity (Mus musculus [6]): Dose-dependent effect
Activity (Mus musculus [7]): 100%
Ki [2]: > 10 µM
Activity (Mus musculus [8]): 100%
Activity (Mus musculus [9]): 100%
Activity (Mus musculus [10]): 100%
ED50 (Mus musculus [11]): 3.84 nmol
Activity (Mus musculus [12]): 100%
EC50 (Mu-type opioid receptor [3]): 128 nM
Activity (Mus musculus [13]): 100%
MPE (Mus musculus [14]): 34.8%
Activity (Mus musculus [15]): inactive
Activity [16]: Non-Toxic
Activity (Mus musculus [17]): 100%
Activity (Mus musculus [18]): 100%
half-life [19]: > 300 min
Activity [20]: Toxic
Activity (Mus musculus [21]): Active
half-life [22]: > 300 min
Activity (Mus musculus [23]): Dose-dependent effect
Activity (Mus musculus [24]): 100%
Activity (Mus musculus [25]): 100%
ED50 (Mus musculus [26]): 0.043 nmol
Activity (Mus musculus [27]): 100%
MPE (Mus musculus [28]): 84%
Activity (Mus musculus [29]): 100%
Emax (Mu-type opioid receptor [4]): 76.7%
Activity [30]: Toxic

C=C(C(N)=O)[C@@H](NC(=O)[C@H](Cc1ccccc1)NC(=O)[C@@H](CNC(C)=O)NC(=O)[C@@H](N)Cc1ccc(O)cc1)c1ccco1
Ki (Mu-type opioid receptor [1]): 22.4 nM
Ki [2]: > 10 µM
EC50 (Mu-type opioid receptor [3]): 1360 nM
Emax (Mu-type opioid receptor [4]): 78.2%

C=C(C(N)=O)[C@@H](NC(=O)[C@H](Cc1ccccc1)NC(=O)[C@@H](CN)NC(=O)[C@@H](N)Cc1ccc(O)cc1)c1ccco1
Ki (Mu-type opioid receptor [1]): 53 nM
Ki [2]: > 10 µM
EC50 (Mu-type opioid receptor [3]): 1500 nM
Emax (Mu-type opioid receptor [4]): 62.3%

C=C(C(N)=O)[C@@H](NC(=O)[C@H](Cc1c[nH]c2ccccc12)NC(=O)[C@@H](CCCCNC(=N)N)NC(=O)[C@@H](N)Cc1ccc(O)cc1)c1ccco1
Ki (Mu-type opioid receptor [1]): 405 nM
Ki [2]: > 10 µM
EC50 (Mu-type opioid receptor [3]): 341 nM
Emax (Mu-type opioid receptor [4]): 76.5%

C=C(C(N)=O)[C@@H](NC(=O)[C@H](Cc1c[nH]c2ccccc12)NC(=O)[C@@H](CN)NC(=O)[C@@H](N)Cc1ccc(O)cc1)c1ccco1
Ki (Mu-type opioid receptor [1]): 5.47 nM
Ki [2]: > 10 µM
EC50 (Mu-type opioid receptor [3]): 192 nM
Emax (Mu-type opioid receptor [4]): 81.5%

Reference: ChEMBL document CHEMBL4627340, “Design, synthesis, and biological activity of new endomorphin analogs with multi-site modifications” (Bioorg Med Chem, 2020)
